Reference: patent US8440842B2, “Antimicrobial compounds, their synthesis and their use for treatment of mammalian infections” (Leibniz-Institut fuer Naturstoff-Forschung und …, priority 2007, dated 2013)
In brackets after ≈: the same amount, converted by molar mass. Read-outs that look alike come from different tables or passages of the source.

Key:
M. vaccae IMET 10670 = assay: MIC by broth micro dilution method in Mueller-Hinton broth (NCCLS); assay type: cell-based; conditions: Mycolicibacterium vaccae
Procedure: (§1) Determination of the in vitro inhibitory activity of the compounds of the invention against mycobacteria.
(§2) The antibacterial activities of the compounds against Mycobacterium smegmatis SG 987, M. aurum SB66, M. vaccae IMET 10670 and M. fortuitum B were tested by determination of minimal inhibitory concentrations (MIC) by the broth micro dilution method in Mueller-Hinton broth (Difco) according to the NCCLS guidelines [National Committee for Clinical Laboratory Standards: Methods for dilution antimicrobial susceptibility tests for bacteria that grow aerobically; 5th Ed.; Villanova, Ed.; Approved standard Document M7-A5. NCCLS, (2000)].

M. fortuitum B = assay: as above; assay type: cell-based; conditions: Mycolicibacterium fortuitum, read-out: M. fortuitum MIC
Procedure: as §1, §2

[1] = test system: Mycobacterium smegmatis SG 987; assay: as above; assay type: cell-based; conditions: Mycolicibacterium smegmatis
Procedure: as §1, §2

M. tuberculosis H37Rv [2] = assay: MIC and MBC, classical method (liquid Shkolnikova medium, Lowenstein-Jensen medium); assay type: cell-based; conditions: Mycobacterium tuberculosis; for MIC: 336 h
M. tuberculosis H37Rv [3] = assay: resazurin reduction assay (MIC96), Alamar Blue method; assay type: cell-based; conditions: Mycobacterium tuberculosis, read-out: minimal inhibitory concentrations (MIC) M. tuberculosis H37Rv
Procedure: Activity against M. tuberculosis H37Rv was determined by the resazurin reduction assay (MIC96) too. The method was described in detail in: P. Quillardet, O. Huisman, R. D'Ari, M. Hofnung, Proc. Natl. Acad. Sci. USA, 1982, 79, 5971-5; J. C. Palomino, A. Martin, M. Camacho, H. Guerra, J. Swings, F. Portaels, Antimicrob. Agents Chemother., 2002, 46, 2720-2.

[4] = IMET10670, broth micro dilution, Mueller-Hinton broth, read-out: M. vaccae MIC
[5] = broth micro dilution, Mueller-Hinton broth
[6] = SG987, broth micro dilution, Mueller-Hinton broth, read-out: M. smegmatis MIC
[7] = strain H37Rv, liquid Shkolnikova medium, 14 days at 37° C., read-out: MIC
[8] = strain H37Rv, solid drug free Lowenstein-Jensen medium, 21-28 days, read-out: MBC

Row | SMILES | melting point [°C] | MIC (M. vaccae IMET 10670; [4]) [ng/mL] | MIC (M. fortuitum B; [5]) [ng/mL] | MIC [1, 6] [ng/mL] | MIC (M. tuberculosis H37Rv [2]; [7]) [ng/mL] | MBC (M. tuberculosis H37Rv [2]; [8]) [ng/mL] | MIC (M. tuberculosis H37Rv [3]) [ng/mL] | MIC (M. vaccae IMET 10670; IMET10670, read-out: M. vaccae MIC) [ng/mL] | MIC (M. fortuitum B) [ng/mL] | MIC ([1]; SG987, read-out: M. smegmatis MIC) [ng/mL] | MBC (M. tuberculosis H37Rv [2]; H37RV) [ng/mL] | MIC (M. tuberculosis H37Rv [2]; H37RV) [ng/mL]
1 | O=c1nc(N2CCN(c3ccccc3F)CC2)sc2c([N+](=O)[O-])cc(C(F)(F)F)cc12 [Compound 6, 2-[4-(2-Fluorophenyl)piperazin-1-yl]-8-nitro-6-(trifluoromethyl)-4H-1,3-benzothiazin-4-one] | 164 to 168 | 5 (≈ 11 nM) | 5 (≈ 11 nM) | 5 (≈ 11 nM) | – | – | – | – | – | – | – | –
2 | NNC(=O)c1ccncc1 [Isoniazid (INH), Isoniazid, reference compound] | – | – | – | – | 780 (≈ 5690 nM) | 1560 (≈ 11400 nM) | 125 (≈ 911 nM) | – | – | – | – | –
3 | O=c1nc(N2CCN(c3ccc(Cl)cc3)CC2)sc2c([N+](=O)[O-])cc([N+](=O)[O-])cc12 [Compound 1, 2-[4-(4-Chlorophenyl)piperazin-1-yl]-6,8-dinitro-4H-1,3-benzothiazin-4-one] | 279 to 281 | – | – | – | – | – | – | 6.2 (≈ 13.8 nM) | 780 (≈ 1740 nM) | 780 (≈ 1740 nM) | – | –
4 | CCN(Cc1ccccc1)c1nc(=O)c2cc(C(F)(F)F)cc([N+](=O)[O-])c2s1 [Compound 4, 2-[Benzyl(ethyl)amino]-8-nitro-6-(trifluoromethyl)-4H-1,3-benzothiazin-4-one] | 94 to 97 | 0.8 (≈ 1.95 nM) | 6.2 (≈ 15.1 nM) | 6.2 (≈ 15.1 nM) | – | – | 2 (≈ 4.89 nM) | – | – | – | – | –
5 | Cc1ccc(Cl)cc1N1CCN(c2nc(=O)c3cc(C(F)(F)F)cc([N+](=O)[O-])c3s2)CC1 [Compound 2, 2-[4-(5-chloro-2-methylphenyl)piperazin-1-yl]-8-nitro-6-(trifluoromethyl)-4H-1,3-benzothiazin-4-one] | 158 to 161 | 8 (≈ 16.5 nM) | 31 (≈ 63.9 nM) | 50 (≈ 103 nM) | – | – | – | – | – | – | – | –
6 | O=c1nc(NCc2ccccc2)sc2c([N+](=O)[O-])cc(C(F)(F)F)cc12 [Compound 8, 2-(Benzylamino)-8-nitro-6-(trifluoromethyl)-4H-1,3-benzothiazin-4-one] | 192 to 194 | < 0.0121 | 0.78 (≈ 2.05 nM) | 0.78 (≈ 2.05 nM) | – | – | 50 (≈ 131 nM) | – | – | – | 1560 (≈ 4090 nM) | 1560 (≈ 4090 nM)
7 | C[C@H](c1ccccc1)N(C)c1nc(=O)c2cc(C(F)(F)F)cc([N+](=O)[O-])c2s1 [Compound 9, 2-{Methyl[(1R)-1-phenylethyl]amino}-8-nitro-6-(trifluoromethyl)-4H-1,3-benzothiazin-4-one] | 110 to 113 | < 0.0121 | < 0.0121 | < 0.0121 | – | – | 0.4 (≈ 0.977 nM) | – | – | – | – | –
8 | CN(Cc1ccccc1)c1nc(=O)c2cc(C(F)(F)F)cc([N+](=O)[O-])c2s1 [Compound 5, 2-[Benzyl(methyl)amino]-8-nitro-6-(trifluoromethyl)-4H-1,3-benzothiazin-4-one] | 120 to 124 | 0.5 (≈ 1.26 nM) | 15.6 (≈ 39.5 nM) | 15.6 (≈ 39.5 nM) | – | – | 3 (≈ 7.59 nM) | – | – | – | 3120 (≈ 7890 nM) | 1560 (≈ 3950 nM)
9 | CN(Cc1ccccc1)c1nc(=O)c2cc(Cl)cc([N+](=O)[O-])c2s1 [Compound 10, 2-[Benzyl(methyl)amino]-6-chloro-8-nitro-4H-1,3-benzothiazin-4-one] | 138 to 141 | 0.31 (≈ 0.857 nM) | 1.56 (≈ 4.31 nM) | 6.2 (≈ 17.1 nM) | < 390 | 780 (≈ 2160 nM) | 25 (≈ 69.1 nM) | – | – | – | – | –
10 | O=c1nc(N2CCN(Cc3ccccc3)CC2)sc2c([N+](=O)[O-])cc(C(F)(F)F)cc12 [Compound 7, 2-(4-Benzylpiperazin-1-yl)-8-nitro-6-(trifluoromethyl)-4H-1,3-benzothiazin-4-one] | 161 to 163 | 50 (≈ 111 nM) | 50 (≈ 111 nM) | 50 (≈ 111 nM) | – | – | – | – | – | – | – | –
11 | O=c1nc(N2CCN(c3cccc(C(F)(F)F)c3)CC2)sc2c([N+](=O)[O-])cc(C(F)(F)F)cc12 [Compound 3, 8-Nitro-6-(trifluoromethyl)-2-{4-[3-(trifluoromethyl)phenyl]piperazin-1-yl}-4H-1,3-benzothiazin-4-one] | 201 to 203 | 3.1 (≈ 6.15 nM) | 3.1 (≈ 6.15 nM) | 40 (≈ 79.3 nM) | – | – | – | – | – | – | – | –
